From ChEMBL document CHEMBL3991601, “The target landscape of clinical kinase drugs” (Science, 2017)
Activity calls are given as the source filed them.

Tests used:
[1] = biological target: Bone morphogenetic protein receptor type-1A (Homo sapiens, UniProt P36894)
[2] = biological target: Casein kinase I isoform epsilon (Homo sapiens, UniProt P49674)
[3] = biological target: T1, Breakpoint cluster region protein (Homo sapiens, UniProt P11274)
T1 sequence (P11274 whole entry): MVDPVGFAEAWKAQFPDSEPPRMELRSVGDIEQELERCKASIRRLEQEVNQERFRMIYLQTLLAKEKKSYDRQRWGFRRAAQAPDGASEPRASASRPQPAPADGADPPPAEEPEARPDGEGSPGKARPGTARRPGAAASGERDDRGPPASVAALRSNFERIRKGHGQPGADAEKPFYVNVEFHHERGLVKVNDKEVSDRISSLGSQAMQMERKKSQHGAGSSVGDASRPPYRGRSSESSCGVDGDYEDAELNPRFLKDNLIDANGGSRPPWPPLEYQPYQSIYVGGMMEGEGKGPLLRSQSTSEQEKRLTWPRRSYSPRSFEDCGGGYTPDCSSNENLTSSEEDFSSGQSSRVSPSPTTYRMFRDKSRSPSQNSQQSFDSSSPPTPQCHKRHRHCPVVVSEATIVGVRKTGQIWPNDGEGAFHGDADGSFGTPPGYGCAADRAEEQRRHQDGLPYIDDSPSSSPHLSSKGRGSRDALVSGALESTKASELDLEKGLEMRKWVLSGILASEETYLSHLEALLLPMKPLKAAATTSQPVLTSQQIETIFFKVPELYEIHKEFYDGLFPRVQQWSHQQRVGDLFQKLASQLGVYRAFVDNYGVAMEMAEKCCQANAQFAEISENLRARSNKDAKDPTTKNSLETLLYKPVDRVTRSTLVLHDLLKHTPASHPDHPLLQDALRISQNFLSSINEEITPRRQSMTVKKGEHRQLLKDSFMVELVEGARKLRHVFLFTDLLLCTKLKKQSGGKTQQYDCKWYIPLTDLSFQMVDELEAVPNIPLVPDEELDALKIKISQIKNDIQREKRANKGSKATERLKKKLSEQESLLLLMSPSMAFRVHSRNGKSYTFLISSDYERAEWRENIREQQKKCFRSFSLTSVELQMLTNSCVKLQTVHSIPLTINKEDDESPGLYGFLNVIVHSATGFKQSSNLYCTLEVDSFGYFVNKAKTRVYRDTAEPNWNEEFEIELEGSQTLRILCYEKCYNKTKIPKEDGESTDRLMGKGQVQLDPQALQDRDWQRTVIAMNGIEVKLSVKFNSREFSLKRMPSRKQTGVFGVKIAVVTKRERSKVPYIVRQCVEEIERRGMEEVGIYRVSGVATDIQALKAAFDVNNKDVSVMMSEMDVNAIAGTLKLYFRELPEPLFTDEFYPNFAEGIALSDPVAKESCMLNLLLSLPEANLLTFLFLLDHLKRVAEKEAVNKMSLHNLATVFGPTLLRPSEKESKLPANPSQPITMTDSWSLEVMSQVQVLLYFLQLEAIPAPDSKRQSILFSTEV

[4] = biological target: T2, Phenylalanine--tRNA ligase beta subunit (Homo sapiens, UniProt Q9NSD9)
T2 sequence (Q9NSD9 whole entry): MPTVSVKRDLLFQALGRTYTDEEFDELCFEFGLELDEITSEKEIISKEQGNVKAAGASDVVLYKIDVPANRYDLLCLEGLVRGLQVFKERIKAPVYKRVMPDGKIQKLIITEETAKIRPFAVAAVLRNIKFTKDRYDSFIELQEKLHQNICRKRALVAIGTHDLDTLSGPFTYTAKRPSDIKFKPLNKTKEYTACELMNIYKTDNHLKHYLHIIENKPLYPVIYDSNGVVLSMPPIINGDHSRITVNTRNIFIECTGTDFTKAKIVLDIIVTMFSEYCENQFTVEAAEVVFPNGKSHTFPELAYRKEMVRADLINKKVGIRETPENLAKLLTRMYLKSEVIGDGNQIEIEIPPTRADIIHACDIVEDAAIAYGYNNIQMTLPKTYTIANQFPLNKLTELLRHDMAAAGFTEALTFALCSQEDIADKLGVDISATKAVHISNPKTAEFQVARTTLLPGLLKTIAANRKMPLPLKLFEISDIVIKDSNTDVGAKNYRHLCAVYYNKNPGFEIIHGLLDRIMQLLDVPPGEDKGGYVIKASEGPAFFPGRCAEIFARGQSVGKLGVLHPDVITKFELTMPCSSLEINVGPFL

[5] = biological target: Serine/threonine-protein kinase SIK3 (Homo sapiens, UniProt Q9Y2K2)
[6] = biological target: T3, Signal recognition particle receptor subunit alpha (Homo sapiens, UniProt P08240)
T3 sequence (P08240 whole entry): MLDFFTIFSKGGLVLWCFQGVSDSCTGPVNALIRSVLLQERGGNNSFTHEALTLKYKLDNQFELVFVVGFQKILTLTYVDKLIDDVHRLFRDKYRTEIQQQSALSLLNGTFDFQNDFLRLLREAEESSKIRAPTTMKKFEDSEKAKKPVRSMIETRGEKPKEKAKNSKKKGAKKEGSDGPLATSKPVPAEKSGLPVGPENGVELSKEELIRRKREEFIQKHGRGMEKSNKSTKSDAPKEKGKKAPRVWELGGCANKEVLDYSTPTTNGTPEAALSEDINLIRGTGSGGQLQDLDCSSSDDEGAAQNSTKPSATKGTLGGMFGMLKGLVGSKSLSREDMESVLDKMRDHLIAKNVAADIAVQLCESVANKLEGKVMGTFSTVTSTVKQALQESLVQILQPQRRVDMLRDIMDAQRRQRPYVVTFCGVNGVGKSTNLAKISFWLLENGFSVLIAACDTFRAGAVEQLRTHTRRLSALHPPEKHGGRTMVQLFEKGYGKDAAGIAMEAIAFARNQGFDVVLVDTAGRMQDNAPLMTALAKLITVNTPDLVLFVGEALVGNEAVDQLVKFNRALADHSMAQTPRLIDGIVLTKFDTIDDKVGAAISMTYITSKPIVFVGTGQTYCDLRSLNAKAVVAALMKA
Note: in the data inactive means no Kd found up to 30 µM.

Chain of Casein kinase I isoform epsilon (P49674 whole entry, canonical isoform): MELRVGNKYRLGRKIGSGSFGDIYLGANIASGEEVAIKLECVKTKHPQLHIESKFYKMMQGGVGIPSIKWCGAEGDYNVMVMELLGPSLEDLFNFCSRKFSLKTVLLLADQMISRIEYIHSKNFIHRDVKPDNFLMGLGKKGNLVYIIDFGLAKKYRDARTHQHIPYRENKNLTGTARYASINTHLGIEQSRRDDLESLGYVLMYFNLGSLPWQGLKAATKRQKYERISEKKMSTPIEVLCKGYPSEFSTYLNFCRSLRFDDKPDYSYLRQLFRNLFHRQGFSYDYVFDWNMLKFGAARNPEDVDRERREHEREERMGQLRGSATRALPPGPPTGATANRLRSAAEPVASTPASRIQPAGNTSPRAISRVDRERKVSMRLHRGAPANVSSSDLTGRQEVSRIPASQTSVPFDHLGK
Chain of Serine/threonine-protein kinase SIK3 (Q9Y2K2 whole entry): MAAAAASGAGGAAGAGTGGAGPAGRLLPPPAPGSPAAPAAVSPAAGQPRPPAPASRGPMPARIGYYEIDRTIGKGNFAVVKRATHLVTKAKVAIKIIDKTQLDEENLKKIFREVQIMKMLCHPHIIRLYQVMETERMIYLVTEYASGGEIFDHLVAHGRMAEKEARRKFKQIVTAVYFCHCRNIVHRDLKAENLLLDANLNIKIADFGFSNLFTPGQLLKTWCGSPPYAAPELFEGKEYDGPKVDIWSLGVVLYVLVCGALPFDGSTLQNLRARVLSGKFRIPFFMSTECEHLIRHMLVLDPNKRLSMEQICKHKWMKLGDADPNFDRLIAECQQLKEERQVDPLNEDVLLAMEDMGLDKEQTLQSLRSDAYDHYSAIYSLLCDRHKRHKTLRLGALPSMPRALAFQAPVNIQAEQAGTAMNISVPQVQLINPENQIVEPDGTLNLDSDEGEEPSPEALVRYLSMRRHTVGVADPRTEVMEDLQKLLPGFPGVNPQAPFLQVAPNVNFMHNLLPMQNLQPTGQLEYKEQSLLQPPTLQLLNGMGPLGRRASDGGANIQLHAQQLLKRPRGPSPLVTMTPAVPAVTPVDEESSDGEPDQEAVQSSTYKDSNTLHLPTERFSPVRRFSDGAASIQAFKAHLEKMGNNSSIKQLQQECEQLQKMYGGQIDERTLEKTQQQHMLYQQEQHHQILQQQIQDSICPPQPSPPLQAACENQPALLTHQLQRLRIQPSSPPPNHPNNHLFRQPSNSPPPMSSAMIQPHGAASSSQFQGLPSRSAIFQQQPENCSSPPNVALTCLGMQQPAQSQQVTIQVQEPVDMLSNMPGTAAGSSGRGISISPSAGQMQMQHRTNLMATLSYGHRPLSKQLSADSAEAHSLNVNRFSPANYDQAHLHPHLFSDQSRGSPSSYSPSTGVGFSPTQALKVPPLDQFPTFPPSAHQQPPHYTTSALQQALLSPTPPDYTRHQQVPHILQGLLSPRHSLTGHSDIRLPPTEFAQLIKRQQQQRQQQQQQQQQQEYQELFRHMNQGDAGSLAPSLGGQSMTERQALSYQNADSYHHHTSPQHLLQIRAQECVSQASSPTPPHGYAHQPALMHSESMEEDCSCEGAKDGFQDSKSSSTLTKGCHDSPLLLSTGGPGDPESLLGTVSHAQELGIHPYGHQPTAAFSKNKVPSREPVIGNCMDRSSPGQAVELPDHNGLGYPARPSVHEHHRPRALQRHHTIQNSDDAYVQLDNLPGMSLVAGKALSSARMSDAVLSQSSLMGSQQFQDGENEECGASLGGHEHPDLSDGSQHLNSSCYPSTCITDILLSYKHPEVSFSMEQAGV
Chain of Bone morphogenetic protein receptor type-1A (P36894 whole entry, canonical isoform): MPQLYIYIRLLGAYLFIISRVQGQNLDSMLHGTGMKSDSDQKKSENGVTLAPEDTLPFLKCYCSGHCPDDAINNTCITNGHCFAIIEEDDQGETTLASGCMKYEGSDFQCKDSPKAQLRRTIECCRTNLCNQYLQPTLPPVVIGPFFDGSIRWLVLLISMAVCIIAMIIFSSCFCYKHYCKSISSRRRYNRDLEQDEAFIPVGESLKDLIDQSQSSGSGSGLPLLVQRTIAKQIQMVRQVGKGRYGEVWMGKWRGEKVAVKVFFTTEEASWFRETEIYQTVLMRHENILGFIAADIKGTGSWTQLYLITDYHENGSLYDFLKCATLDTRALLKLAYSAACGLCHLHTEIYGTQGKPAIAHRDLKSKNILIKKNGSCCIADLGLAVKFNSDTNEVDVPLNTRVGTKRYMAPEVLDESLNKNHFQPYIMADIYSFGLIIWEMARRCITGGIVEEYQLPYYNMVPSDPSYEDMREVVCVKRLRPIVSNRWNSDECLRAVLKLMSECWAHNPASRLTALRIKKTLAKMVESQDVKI

CNC(=O)c1ccc(-c2cnc3ncc(Cc4ccc5ncccc5c4)n3n2)cc1F [CAPMATINIB]
Kd [1]: > 30 µM (inactive)
Kd [2]: > 30 µM (inactive)
Kd [3]: > 30 µM (inactive)
Kd [4]: > 30 µM (inactive)
Kd [5]: > 30 µM (inactive)
Kd [6]: > 30 µM (inactive)

CCn1c(=O)c(-c2cc[nH]n2)cc2c(C)nc(N)nc21 [VOXTALISIB]
Kd [1]: > 30 µM (inactive)
Kd [2]: > 30 µM (inactive)
Kd [3]: > 30 µM (inactive)
Kd [4]: > 30 µM (inactive)
Kd [5]: > 30 µM (inactive)
Kd [6]: > 30 µM (inactive)

Cc1cc2c(F)c(Oc3ncnn4cc(OC[C@@H](C)OC(=O)[C@H](C)N)c(C)c34)ccc2[nH]1 [BRIVANIB ALANINATE]
Kd [1]: > 30 µM (inactive)
Kd [2]: > 30 µM (inactive)
Kd [3]: > 30 µM (inactive)
Kd [4]: > 30 µM (inactive)
Kd [5]: > 30 µM (inactive)
Kd [6]: > 30 µM (inactive)

COc1cc(OC)c(/C=C/S(=O)(=O)Cc2ccc(OC)c(NCC(=O)O)c2)c(OC)c1 [RIGOSERTIB]
Kd [1]: > 30 µM (inactive)
Kd [2]: > 30 µM (inactive)
Kd [3]: > 30 µM (inactive)
Kd [4]: > 30 µM (inactive)
Kd [5]: > 30 µM (inactive)
Kd [6]: > 30 µM (inactive)

C=CC(=O)N1CCC(Oc2cc3c(Nc4ccc(Cl)c(Cl)c4F)ncnc3cc2OC)CC1 [POZIOTINIB]
Kd [1]: > 30 µM (inactive)
Kd [2]: > 30 µM (inactive)
Kd [3]: > 30 µM (inactive)
Kd [4]: > 30 µM (inactive)
Kd [5]: > 30 µM (inactive)
Kd [6]: > 30 µM (inactive)

Cc1ccc(-n2nc(C(C)(C)C)cc2NC(=O)NCc2cc(F)ccc2Oc2ccc3c(cnn3CCO)c2)cc1 [PEXMETINIB]
Kd [1]: > 30 µM (inactive)
Kd [2]: > 30 µM (inactive)
Kd [3]: 0.681 µM (active)
Kd [4]: > 30 µM (inactive)
Kd [5]: > 30 µM (inactive)
Kd [6]: > 30 µM (inactive)

Cn1cc(-c2ccc(F)c(C(F)(F)F)c2)nc1C1CCN(c2ncnc3[nH]ncc23)CC1 [LY-2584702]
Kd [1]: > 30 µM (inactive)
Kd [2]: > 30 µM (inactive)
Kd [3]: > 30 µM (inactive)
Kd [4]: > 30 µM (inactive)
Kd [5]: > 30 µM (inactive)
Kd [6]: > 30 µM (inactive)

CC[C@H](Nc1ncnc2[nH]cnc12)c1nc2cccc(F)c2c(=O)n1-c1ccccc1 [IDELALISIB]
Kd [1]: > 30 µM (inactive)
Kd [2]: > 30 µM (inactive)
Kd [3]: > 30 µM (inactive)
Kd [4]: > 30 µM (inactive)
Kd [5]: > 30 µM (inactive)
Kd [6]: > 30 µM (inactive)

O=C1NC(=O)/C(=C/c2ccc3nccc(-c4ccncc4)c3c2)S1 [GSK-1059615]
Kd [1]: > 30 µM (inactive)
Kd [2]: > 30 µM (inactive)
Kd [3]: > 30 µM (inactive)
Kd [4]: > 30 µM (inactive)
Kd [5]: > 30 µM (inactive)
Kd [6]: > 30 µM (inactive)

CNC(=O)c1cc(Oc2ccc(NC(=O)Nc3ccc(Cl)c(C(F)(F)F)c3)c(F)c2)ccn1 [REGORAFENIB]
Kd [1]: > 30 µM (inactive)
Kd [2]: > 30 µM (inactive)
Kd [3]: 0.739 µM (active)
Kd [4]: > 30 µM (inactive)
Kd [5]: > 30 µM (inactive)
Kd [6]: > 30 µM (inactive)

CN1N=C(N)c2cn([C@@H]3O[C@H](COP(=O)(O)O)[C@@H](O)[C@H]3O)c3ncnc1c23 [TRICIRIBINE PHOSPHATE]
Kd [1]: > 30 µM (inactive)
Kd [2]: > 30 µM (inactive)
Kd [3]: > 30 µM (inactive)
Kd [4]: > 30 µM (inactive)
Kd [5]: > 30 µM (inactive)
Kd [6]: > 30 µM (inactive)

Cc1cc(Nc2cc(N3CCN(C)CC3)nc(/C=C/c3ccccc3)n2)n[nH]1 [ENMD-2076]
Kd [1]: > 30 µM (inactive)
Kd [2]: > 30 µM (inactive)
Kd [3]: > 30 µM (inactive)
Kd [4]: > 30 µM (inactive)
Kd [5]: > 30 µM (inactive)
Kd [6]: 0.008 µM

CN1CCC(CNc2ccc3ncc(-c4cccc(OC(F)(F)F)c4)n3n2)CC1 [SGI-1776]
Kd [1]: > 30 µM (inactive)
Kd [2]: > 30 µM (inactive)
Kd [3]: > 30 µM (inactive)
Kd [4]: > 30 µM (inactive)
Kd [5]: > 30 µM (inactive)
Kd [6]: > 30 µM (inactive)

CC(C)Nc1cc(-c2c[nH]c(C(=O)N[C@H](CO)c3cccc(Cl)c3)c2)c(Cl)cn1 [ULIXERTINIB]
Kd [1]: > 30 µM (inactive)
Kd [2]: > 30 µM (inactive)
Kd [3]: > 30 µM (inactive)
Kd [4]: > 30 µM (inactive)
Kd [5]: > 30 µM (inactive)
Kd [6]: > 30 µM (inactive)

CC[C@@H]1C(=O)N(C)c2cnc(Nc3ccc(C(=O)N[C@H]4CC[C@H](N5CCN(CC6CC6)CC5)CC4)cc3OC)nc2N1C(C)C [VOLASERTIB]
Kd [1]: > 30 µM (inactive)
Kd [2]: > 30 µM (inactive)
Kd [3]: > 30 µM (inactive)
Kd [4]: > 30 µM (inactive)
Kd [5]: > 30 µM (inactive)
Kd [6]: > 30 µM (inactive)

CN1CC[C@@H](c2c(O)cc(O)c3c(=O)cc(-c4ccccc4Cl)oc23)[C@@H]1CO
Kd [1]: > 30 µM (inactive)
Kd [2]: > 30 µM (inactive)
Kd [3]: > 30 µM (inactive)
Kd [4]: > 30 µM (inactive)
Kd [5]: > 30 µM (inactive)
Kd [6]: > 30 µM (inactive)

Cc1ccc(S(=O)(=O)Nc2nc3ccccc3nc2Nc2ccc3nsnc3c2)cc1
Kd [1]: > 30 µM (inactive)
Kd [2]: > 30 µM (inactive)
Kd [3]: > 30 µM (inactive)
Kd [4]: > 30 µM (inactive)
Kd [5]: > 30 µM (inactive)
Kd [6]: > 30 µM (inactive)

COC(=O)N[C@@H](C)CNc1nccc(-c2cn(C(C)C)nc2-c2cc(Cl)cc(NS(C)(=O)=O)c2F)n1 [ENCORAFENIB]
Kd [1]: > 30 µM (inactive)
Kd [2]: > 30 µM (inactive)
Kd [3]: > 30 µM (inactive)
Kd [4]: > 30 µM (inactive)
Kd [5]: > 30 µM (inactive)
Kd [6]: > 30 µM (inactive)

COCCNCc1ccc(-c2cc3nccc(Oc4ccc(NC(=S)NC(=O)Cc5ccc(F)cc5)cc4F)c3s2)nc1 [GLESATINIB]
Kd [1]: > 30 µM (inactive)
Kd [2]: > 30 µM (inactive)
Kd [3]: 0.858 µM (active)
Kd [4]: > 30 µM (inactive)
Kd [5]: > 30 µM (inactive)
Kd [6]: > 30 µM (inactive)

CCS(=O)(=O)N1CC(CC#N)(n2cc(-c3ncnc4[nH]ccc34)cn2)C1 [BARICITINIB]
Kd [1]: > 30 µM (inactive)
Kd [2]: > 30 µM (inactive)
Kd [3]: > 30 µM (inactive)
Kd [4]: > 30 µM (inactive)
Kd [5]: > 30 µM (inactive)
Kd [6]: > 30 µM (inactive)

Cc1c(F)cc(C(=O)NC2CC2)cc1-c1ccc(C(=O)NCC(C)(C)C)cn1 [LOSMAPIMOD]
Kd [1]: > 30 µM (inactive)
Kd [2]: > 30 µM (inactive)
Kd [3]: > 30 µM (inactive)
Kd [4]: > 30 µM (inactive)
Kd [5]: > 30 µM (inactive)
Kd [6]: > 30 µM (inactive)
